Reference: patent US20230348426A1, “OXOPYRROLIDINE FPR2 AGONISTS” (Bristol-Myers Squibb Company, priority 2020, published 2023)

Legend:
human FPR2 = human FPR2 (Homo sapiens (Human), UniProt P25090); assay: FPR2 cyclic adenosine monophosphate (cAMP) assay; assay type: cell-based; conditions: CHO cells overexpressing human FPR2; forskolin 5 µM; inhibition of cAMP production; read-out: hFPR2 cAMP2 EC50
In short: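 CHO cells overexpressing human FPR2 (2,000/well) incubated 30 min at room temperature with compound (0.020 nM–100 µM, 1% DMSO), 5 µM forskolin and 200 µM IBMX.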

human FPR1 = human FPR1 (Homo sapiens (Human), UniProt P21462); assay: FPR1 cyclic adenosine monophosphate (cAMP) assay; assay type: cell-based; conditions: CHO cells overexpressing human FPR1; forskolin 10 µM; inhibition of cAMP production; read-out: hFPR1 cAMP EC50
Chain of human FPR1 (P21462 whole entry): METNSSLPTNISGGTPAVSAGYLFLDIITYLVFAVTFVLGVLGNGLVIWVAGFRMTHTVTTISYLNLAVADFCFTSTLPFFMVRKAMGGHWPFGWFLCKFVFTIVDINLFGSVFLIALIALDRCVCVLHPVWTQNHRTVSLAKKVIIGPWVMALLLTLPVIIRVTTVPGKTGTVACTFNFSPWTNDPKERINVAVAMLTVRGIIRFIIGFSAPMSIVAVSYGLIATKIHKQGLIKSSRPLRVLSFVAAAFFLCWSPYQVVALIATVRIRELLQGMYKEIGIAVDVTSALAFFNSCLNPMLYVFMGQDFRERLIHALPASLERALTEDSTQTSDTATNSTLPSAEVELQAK
In short: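 CHO cells overexpressing human FPR1 (4,000 cells/well) stimulated with 10 µM forskolin plus 200 µM IBMX in the presence of compound (0.020 nM–100 µM, 1% DMSO), 30 min at room temperature. Intracellular cAMP measured by HTRF. Inhibition of cAMP production fitted to a 4-parameter logistic equation.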

Chain of human FPR2 (P25090 whole entry): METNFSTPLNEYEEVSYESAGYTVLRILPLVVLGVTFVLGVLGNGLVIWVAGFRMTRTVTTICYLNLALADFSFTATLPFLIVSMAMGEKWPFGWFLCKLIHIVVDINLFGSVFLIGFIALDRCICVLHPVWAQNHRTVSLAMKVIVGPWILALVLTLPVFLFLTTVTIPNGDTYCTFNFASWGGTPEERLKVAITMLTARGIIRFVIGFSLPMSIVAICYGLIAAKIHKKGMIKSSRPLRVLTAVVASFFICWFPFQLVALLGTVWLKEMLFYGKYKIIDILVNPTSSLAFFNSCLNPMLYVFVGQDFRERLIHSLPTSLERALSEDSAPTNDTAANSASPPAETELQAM

| EC50 (human FPR2) [nM] | EC50 (human FPR1) [nM] | Structure (SMILES) |
| --- | --- | --- |
| 8.7 | 190 | CCn1cc2c(c(N3C[C@@H](c4c(F)cc(OC)cc4F)[C@@H](NC(=O)c4ccc(OC(F)F)cc4)C3=O)c1=O)CCCC2 [Example 664] |
| < 10 | 7.4 | COc1cc(F)c([C@@H]2CN(c3c(C)ccn(CC4CNC(=O)O4)c3=O)C(=O)[C@H]2NC(=O)c2ccc(OC(F)F)cc2)c(F)c1 (stereo partly shown) [Example 665] |
| 63 | 7.7 | COc1cc(F)c([C@@H]2CN(c3ccc4n(c3=O)CCOC4=O)C(=O)[C@H]2NC(=O)c2ccc(OC(F)(F)F)cc2)c(F)c1 [Example 667] |
| 8.8 | 210 | COc1cc(F)c([C@@H]2CN(c3ccc4n(c3=O)CCOC4=O)C(=O)[C@H]2NC(=O)c2ccc(OC(F)F)cc2)c(F)c1 [Example 668] |
| 11 | 270 | COc1cc(F)c([C@@H]2CN(c3cccn(CC(O)CO)c3=O)C(=O)[C@H]2NC(=O)c2ccc(OC(F)(F)F)cc2)c(F)c1 (stereo partly shown) [Example 669] |
| 7.9 | 5 | COc1ccc([C@@H]2CN(c3ccnn(CCC(F)(F)F)c3=O)C(=O)[C@H]2NC(=O)c2ccc(OC(F)F)cc2)cc1 [Example 672] |
| 6.8 | 23 | CCn1nccc(N2C[C@@H](c3ccc(OC)cc3)[C@H](NC(=O)c3ccc(OC(F)F)cc3)C2=O)c1=O [Example 674] |
| 5.5 | 5 | CCn1nccc(N2C[C@@H](c3ccc(OC)cc3)[C@H](NC(=O)c3ccc(OC(F)(F)F)cc3)C2=O)c1=O [Example 675] |
| 13 | 295 | COc1cc(F)c([C@@H]2CN(c3nccc(OCC(C)(C)O)c3C(F)(F)F)C(=O)[C@H]2NC(=O)c2ccc(Cl)cc2)c(F)c1 [Example 676] |
| 5.3 | 230 | COc1cc(F)c([C@@H]2CN(c3cccn(CC(O)CO)c3=O)C(=O)[C@H]2NC(=O)c2ccc(Cl)cc2)c(F)c1 (stereo partly shown) [Example 677] |
| 11 | 92 | COc1cc(F)c([C@@H]2CN(c3cccn(CC(O)CO)c3=O)C(=O)[C@H]2NC(=O)c2ccc(OC(F)F)cc2)c(F)c1 (stereo partly shown) [Example 678] |
| 6 | 28 | COc1cc(F)c([C@@H]2CN(c3cccn(CC(O)CO)c3=O)C(=O)[C@H]2NC(=O)c2ccc(OC(F)(F)F)cc2)c(F)c1 (stereo partly shown) [Example 679] |
| 2.8 | 780 | COc1cc(F)c([C@@H]2CN(c3cccn(CC(O)CO)c3=O)C(=O)[C@H]2NC(=O)c2ccc(Cl)cc2)c(F)c1 (stereo partly shown) [Example 680] |
| 10 | 1000 | COc1cc(F)c([C@@H]2CN(c3cccn(CC(O)CO)c3=O)C(=O)[C@H]2NC(=O)c2ccc(OC(F)F)cc2)c(F)c1 (stereo partly shown) [Example 681] |
| 15 | 1 | COc1cc(F)c([C@@H]2CN(c3c(C)ccn(CC(O)C4CC4)c3=O)C(=O)[C@H]2NC(=O)c2ccc(OC(F)F)cc2)c(F)c1 (stereo partly shown) [Example 682] |
| 14 | 1.4 | COc1cc(F)c([C@@H]2CN(c3c(C)ccn(CC(O)C4CC4)c3=O)C(=O)[C@H]2NC(=O)c2ccc(OC(F)F)cc2)c(F)c1 (stereo partly shown) [Example 685] |
| 1.8 | 0.28 | COc1ccc([C@@H]2CN(c3c(C)ccn(C4CCC4)c3=O)C(=O)[C@H]2NC(=O)c2ccc(OC(F)(F)F)cc2)cc1 [Example 687] |
| 12 | 1.5 | COc1ccc([C@@H]2CN(c3c(C)ccn(C4CCC4)c3=O)C(=O)[C@H]2NC(=O)c2ccc(OC(F)(F)F)cc2)c(F)c1 [Example 688] |
| 4.5 | 1.5 | COc1ccc([C@@H]2CN(c3c(C)ccn(C4CCC4)c3=O)C(=O)[C@H]2NC(=O)c2ccc(OC(F)F)cc2)c(F)c1 [Example 689] |
| 11 | 24 | COc1ccc([C@@H]2CN(c3ccnn(CC(F)F)c3=O)C(=O)[C@H]2NC(=O)c2ccc(Cl)cc2)cc1 [Example 690] |
| 11 | 11 | COc1ccc([C@@H]2CN(c3ccnn(CC(F)F)c3=O)C(=O)[C@H]2NC(=O)c2ccc(OC(F)F)cc2)cc1 [Example 691] |
| 3.8 | 2.8 | COc1ccc([C@@H]2CN(c3ccnn(CC(F)F)c3=O)C(=O)[C@H]2NC(=O)c2ccc(OC(F)(F)F)cc2)cc1 [Example 692] |
| 2 | 2.5 | COc1cc(F)c([C@@H]2CN(c3c(C)ccn(CC4CCOC4)c3=O)C(=O)[C@H]2NC(=O)c2ccc(OC(F)F)cc2)c(F)c1 (stereo partly shown) [Example 693] |

The next lines start with the compound.

| Structure (SMILES) | EC50 (human FPR2) [nM] | EC50 (human FPR1) [nM] |
| --- | --- | --- |
| COc1ccc([C@@H]2CN(c3c(C)ccn(CCO)c3=O)C(=O)[C@H]2NC(=O)c2ccc(OC(F)(F)F)cc2)c(F)c1 [Example 636] | 1.6 | 3.2 |
| COc1cc(F)c([C@@H]2CN(c3c(C)ccn(C4COC4)c3=O)C(=O)[C@H]2NC(=O)c2ccc(OC(F)(F)F)cc2)c(F)c1 [Example 637] | 6.6 | 5.7 |
| CCn1cc(C)c(C)c(N2C[C@@H](c3c(F)cc(OC)cc3F)C(NC(=O)c3ccc(OC(F)(F)F)cc3)C2=O)c1=O (stereo partly shown) [Example 638] | 14 | 290 |
| CCn1cc(C)c(C)c(N2C[C@@H](c3c(F)cc(OC)cc3F)C(NC(=O)c3ccc(OC(F)(F)F)cc3)C2=O)c1=O (stereo partly shown) [Example 639] | 5.8 | 57 |
| COCCn1cc(C)c(C)c(N2C[C@@H](c3c(F)cc(OC)cc3F)C(NC(=O)c3ccc(Cl)cc3)C2=O)c1=O (stereo partly shown) [Example 640] | 2.2 | 1200 |
| COCCn1cc(C)c(C)c(N2C[C@@H](c3c(F)cc(OC)cc3F)C(NC(=O)c3ccc(Cl)cc3)C2=O)c1=O (stereo partly shown) [Example 641] | 2.8 | 1000 |
| CCn1cc(C)c(C)c(N2C[C@@H](c3c(F)cc(OC)cc3F)[C@H](NC(=O)c3ccc(OC(F)F)cc3)C2=O)c1=O [Example 642] | 15 | 570 |
| COc1ccc([C@@H]2CN(c3cccn(CC(O)C(F)(F)F)c3=O)C(=O)[C@H]2NC(=O)c2ccc(OC(F)F)cc2)cc1 (stereo partly shown) [Example 643] | 2.6 | 75 |
| COc1ccc([C@@H]2CN(c3cccn(CC(O)C(F)(F)F)c3=O)C(=O)[C@H]2NC(=O)c2ccc(OC(F)F)cc2)cc1 (stereo partly shown) [Example 644] | 2.1 | 64 |
| COc1ccc([C@@H]2CN(c3ccnn(CCC(F)(F)F)c3=O)C(=O)[C@H]2NC(=O)c2ccc(OC(F)F)cc2)cc1 [Example 645] | 2.8 | 190 |
| COc1cc(F)c([C@@H]2CN(c3c4c(cn(CCO)c3=O)CCCC4)C(=O)[C@H]2NC(=O)c2ccc(OC(F)F)cc2)c(F)c1 [Example 646] | 16 | 670 |
| CCn1ccc(N2C[C@@H](c3c(F)cc(OC)cc3F)[C@H](NC(=O)c3ccc(Cl)cc3)C2=O)n1 [Example 647] | 1.5 | 22 |
| CCn1ccc(N2C[C@@H](c3c(F)cc(OC)cc3F)[C@H](NC(=O)c3ccc(OC(F)F)cc3)C2=O)n1 [Example 648] | 0.7 | 4.1 |
| CCn1ccc(N2C[C@@H](c3c(F)cc(OC)cc3F)[C@H](NC(=O)c3ccc(OC(F)(F)F)cc3)C2=O)n1 [Example 649] | 1.3 | 7.8 |
| COCCn1ccnc1N1C[C@@H](c2c(F)cc(OC)cc2F)[C@H](NC(=O)c2ccc(Cl)cc2)C1=O [Example 650] | 11 | 1700 |
| COCCn1ccnc1N1C[C@@H](c2c(F)cc(OC)cc2F)[C@H](NC(=O)c2ccc(OC(F)F)cc2)C1=O [Example 651] | 3.5 | 780 |
| COCCn1ccnc1N1C[C@@H](c2c(F)cc(OC)cc2F)[C@H](NC(=O)c2ccc(OC(F)(F)F)cc2)C1=O [Example 652] | 7.2 | 700 |
| COc1cc(F)c([C@@H]2CN(c3c(C)ccn(CC(F)F)c3=O)C(=O)[C@H]2NC(=O)c2ccc(Cl)cc2)c(F)c1 [Example 653] | 3.3 | 12 |
| COc1cc(F)c([C@@H]2CN(c3c(C)ccn(C4CCOC4)c3=O)C(=O)[C@H]2NC(=O)c2ccc(Cl)cc2)c(F)c1 (stereo partly shown) [Example 654] | 1 | 12 |
| COc1cc(F)c([C@@H]2CN(c3c(C)ccn(C4CCOC4)c3=O)C(=O)[C@H]2NC(=O)c2ccc(OC(F)(F)F)cc2)c(F)c1 (stereo partly shown) [Example 655] | 3.8 | 1.2 |
| COc1ccc([C@@H]2CN(c3cccn(CC(O)C(F)(F)F)c3=O)C(=O)[C@H]2NC(=O)c2ccc(OC(F)(F)F)cc2)cc1 (stereo partly shown) [Example 656] | 2.5 | 13 |
| COc1ccc([C@@H]2CN(c3cccn(CC(O)C(F)(F)F)c3=O)C(=O)[C@H]2NC(=O)c2ccc(OC(F)(F)F)cc2)cc1 (stereo partly shown) [Example 657] | 2 | 45 |
| COCCn1ncc(C)c(N2C[C@@H](c3c(F)cc(OC)cc3F)[C@H](NC(=O)c3ccc(OC(F)F)cc3)C2=O)c1=O [Example 658] | 3.4 | 1.7 |
| COc1cc(F)c([C@@H]2CN(c3c(C)ccn(C(F)(F)CO)c3=O)C(=O)[C@H]2NC(=O)c2ccc(OC(F)(F)F)cc2)c(F)c1 [Example 659] | 1 | 1.3 |
| COc1cc(F)c([C@@H]2CN(c3ccn(CC(F)F)n3)C(=O)[C@H]2NC(=O)c2ccc(OC(F)F)cc2)c(F)c1 [Example 661] | 1.2 | 110 |
| COc1cc(F)c([C@@H]2CN(c3ccn(CC(F)F)n3)C(=O)[C@H]2NC(=O)c2ccc(OC(F)(F)F)cc2)c(F)c1 [Example 662] | 4 | 14 |
| CCn1cc2c(c(N3C[C@@H](c4c(F)cc(OC)cc4F)[C@H](NC(=O)c4ccc(OC(F)F)cc4)C3=O)c1=O)CCCC2 [Example 663] | 1.1 | 1700 |
